Source: patent publication US20240246913A1, “2-CARBOXYL-INDOLE INHIBITORS OF METALLO-BETA-LACTAMASES” (Oxford University Innovation Limited, priority 2021, published 2024)

How the values were obtained:
IMP-1 = IMP-1 (Serratia marcescens, UniProt P52699); assay: MBL inhibition, FC-5 fluorescence assay, IMP-1; assay type: biochemical; settings: FC-5 cephalosporin substrate, fluorescence; ranges of obtained pIC50; read-out: pIC50 IMP-1 (converted)
Summary of the method: (§1)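 Inhibition of B1 metallo-β-lactamases measured by fluorophore release on hydrolysis of the cephalosporin FC-5, following initial rates by fluorescence (ex 380/em 460 nm). Dose-response data, normalized, were fitted to a variable-slope log(inhibitor) model; four intra-plate replicates per concentration.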

bacteria = assay: Thigh and/or septicaemia mouse model of infection, with meropenem; assay type: in vivo; settings: NMRI mice; single dose with meropenem subcutaneous 1 h after inoculation; endpoint 3 h after treatment initiation
Procedure: Female NMRI mice (5-6 weeks old, 26-30 gram, n=5) were rendered neutropenic via intraperitoneal injection of two doses of cyclophosphamide on day 4 and day 1 before infection. The animals were infected via intramuscular injection of an inoculum containing 10^6 CFU/mL of bacteria in the left thigh. The animals were treated with a single dose of meropenem subcutaneous +/− inhibitor 1 h after inoculation, and animals were either euthanised at the start of treatment or at the study endpoint at 3 h after treatment initiation. Clinical scores were monitored at 1 and 4 hours post inoculation and were in all cases mild or moderate. Thighs were aseptically removed from the animals, homogenised, diluted, and plated for incubation. Bacterial counting was performed after 18-22 h of incubation at 35° C. in ambient air.
Immunocompetent female NMRI mice mice (5-6 weeks old, 26-30 gram, n=5) were inoculated intraperitoneally with 0.5 ml inoculum containing 5×10^5 CFU suspended in 5% porcine mucin.
The animals were treated with a single dose of meropenem subcutaneous+/−metallo-b-lactamase inhibitor intravenous 1 h after inoculation. Animals were either euthanised at the start of treatment or at the study endpoint at 3 h after treatment initiation. Clinical scores were monitored at 1 and 4 hours post inoculation and were in all cases mild or moderate. Mice were anaesthetised anesthetized with a buprenorphine/tiletamine/zolazepam cocktail and bled, then euthanized and the peritoneum flushed with 2 ml sterile 0.9% NaCl and collected. The blood and/or peritoneal flush were serially diluted and plated for incubation. Bacterial counting was performed after 18-22 h of incubation at 35° C. in ambient air.

Escherichia coli NDM-7 = assay: Antibiotic susceptibility testing (MIC), EC NDM-7; assay type: cell-based; settings: agar or broth dilution (CLSI/EUCAST)
Procedure: (§2) Antibiotic susceptibility testing was performed using the agar or broth dilution method, in line with the Clinical and Laboratory Standards Institute (CLSI) and European Committee on Antimicrobial Susceptibility Testing (EUCAST) requirements.

[1] = Plasma protein binding, equilibrium dialysis, mouse plasma; assay type: in vitro ADME; settings: pH 7.4, equilibrium dialysis (RED) 4 hours at 37° C., read-out: Plasma protein binding, fu, Mouse
Summary of the method: (§3)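 Compound at 10 μM in plasma dialysed against 67 mM phosphate buffer pH 7.4 for 4 h at 37° C. in RED device; unbound fraction from buffer and plasma levels by LC-MS/MS. Plasma stability checked in parallel over 4 h at 37° C. versus frozen control.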

[2] = Metabolic stability in mouse hepatocytes; assay type: in vitro ADME; settings: cryopreserved mouse hepatocytes, 1 μM compound, 37° C., up to 90 min, read-out: Metabolic stability in hepatocytes, in vitro t1/2, Mouse
Procedure: (§4) Metabolic stability assays were performed in cryopreserved human and mouse hepatocytes. The hepatocytes were thawed and added to “Thawing media”, and centrifuged to pellet the hepatocytes. The cell pellet was taken up in Williams medium E (Invitrogen A1217601), the number of cells was calculated and adjusted to 1.0×10^6 cells/mi. The incubation was carried out on a heater-shaker at […], in a 24-well Picoplate (round bottom, PerkinElmer), using an incubation volume of […]. Thus, to obtain a final compound concentration of 1 μM, 0.7 μl of the 1 mM compound stock solution was pipetted to the wells of the plate. Reaction was initiated by adding 700 μl of cell suspension. Samples were incubated at 37° C. for […] and a zero sample was taken, i.e. 100 μl sample was removed to a 96-well plate and the reaction was quenched by adding 100 μl of 100% MeCN containing 50 nM Warfarin as an internal control. Consecutive samples were taken at time-points 5 min, 15 min, 30 min, 60 min, and 90 min. After finishing the experiment, samples were centrifuged at 3000 rpm for 15 min and before analysis by LC-MS/MS (Waters Corp, Milford, MA, USA).

VIM-1 = VIM-1 (Pseudomonas aeruginosa, UniProt A0A0F7KYQ8); assay: MBL inhibition, FC-5 fluorescence assay, VIM-1; assay type: biochemical; settings: FC-5 cephalosporin substrate, ranges of obtained pIC50, read-out: pIC50 VIM-1 (converted)
Summary of the method: as §1

[3] = Metabolic stability in human hepatocytes; assay type: in vitro ADME; settings: cryopreserved human hepatocytes, 1 μM compound, 37° C., up to 90 min, read-out: Metabolic stability in hepatocytes, in vitro t1/2, Human
Procedure: as §4

Escherichia coli NDM-1 = assay: Antibiotic susceptibility testing (MIC), EC NDM-1; assay type: cell-based; settings: agar or broth dilution (CLSI/EUCAST)
Procedure: as §2

[4] = tested on: Acinetobacter baumannii NDM-1; assay: Antibiotic susceptibility testing (MIC), AB NDM-1; assay type: cell-based; settings: agar or broth dilution (CLSI/EUCAST)
Procedure: as §2

VIM-2 = VIM-2 (Escherichia coli, UniProt Q5U7L7); assay: MBL inhibition, FC-5 fluorescence assay, VIM-2; assay type: biochemical; settings: FC-5 cephalosporin substrate, ranges of obtained pIC50, read-out: pIC50 VIM-2 (converted)
Summary of the method: as §1

[5] = Plasma protein binding, equilibrium dialysis, human plasma; assay type: in vitro ADME; settings: pH 7.4, equilibrium dialysis (RED) 4 hours at 37° C., read-out: Plasma protein binding, fu, Human
Summary of the method: as §3

NDM-1 = NDM-1 (Klebsiella pneumoniae, UniProt C7C422); assay: MBL inhibition, FC-5 fluorescence assay, NDM-1; assay type: biochemical; settings: FC-5 cephalosporin substrate, fluorescence; ranges of obtained pIC50; read-out: pIC50 NDM-1 (converted)
Sequence of NDM-1 (C7C422 29-270, looked up, species assumed): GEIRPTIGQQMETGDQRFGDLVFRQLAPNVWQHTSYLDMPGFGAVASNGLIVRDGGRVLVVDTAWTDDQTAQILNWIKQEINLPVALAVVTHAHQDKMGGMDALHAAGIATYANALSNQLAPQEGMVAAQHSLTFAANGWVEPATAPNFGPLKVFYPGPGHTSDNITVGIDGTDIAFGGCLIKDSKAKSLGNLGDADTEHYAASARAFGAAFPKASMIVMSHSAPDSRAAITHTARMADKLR
Summary of the method: as §1

Sequence of IMP-1 (P52699 19-246, looked up, species assumed): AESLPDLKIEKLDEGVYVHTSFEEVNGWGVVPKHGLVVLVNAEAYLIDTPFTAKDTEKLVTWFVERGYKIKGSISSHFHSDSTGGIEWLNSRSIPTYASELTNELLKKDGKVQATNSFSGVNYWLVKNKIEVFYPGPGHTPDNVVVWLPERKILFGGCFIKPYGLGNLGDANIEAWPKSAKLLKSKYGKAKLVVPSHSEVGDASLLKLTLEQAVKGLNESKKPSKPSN

Row | Compound | IC50 (IMP-1) | Dose required to reduce minim 1 log fold CFU in a thigh and or a sepsis animal model (bacteria) | MIC values EC NDM-7 (Escherichia coli NDM-7) | fraction unbound at 4 h, 10 μM [1] | half-life at 1 μM [2] | IC50 (VIM-1) | half-life at 1 μM [3] | MIC values EC NDM-1 (Escherichia coli NDM-1) | MIC values AB NDM-1 [4] | IC50 (VIM-2) | fraction unbound at 4 h, 10 μM [5] | IC50 (NDM-1)
1 | COc1cc(-c2c(C(=O)O)[nH]c3c([C@H](C)N4C[C@]5(C[C@@H](CN)C5)OC4=O)cccc23)ccn1 [IC-17, 7-((1S)-1-(2-(aminomethyl)-6-oxo-5-oxa-7-azaspiro[3.4]octan-7-yl)ethyl)-3-(2-methoxypyridin-4-yl)-1H-indole-2-carboxylic acid] | > 10 nM | B (B = 30-10 mg/kg) | A (A = MIC values ≤ 1) | 0.005 to 0.05 | 2.5 to 6.67 h | 1 to 10 nM | > 6.67 h | A (A = MIC values ≤ 1) | B (B MIC values 2 ÷ 8) | < 0.1 nM | 0.05 to 0.25 | 0.1 to 1 nM
2 | C[C@H](NC(=O)c1ccc(CN)cc1)c1cccc2c(-c3ccc(CN4CCOCC4)nc3)c(C(=O)O)[nH]c12 [IC-59, 7-((1S)-1-((4-(aminomethyl)benzoyl)amino)ethyl)-3-(6-(morpholin-4-ylmethyl)pyridin-3-yl)-1H-indole-2-carboxylic acid] | > 10 nM | B (B = 30-10 mg/kg) | A (A = MIC values ≤ 1) |  |  | > 10 nM |  | A (A = MIC values ≤ 1) | A (A = MIC values ≤ 1) | < 0.1 nM |  | < 0.1 nM
3 | C[C@@H](c1cccc2c(-c3ccc(CS(C)(=O)=O)c(F)c3)c(C(=O)O)[nH]c12)N1C[C@]2(C[C@H](CN)C2)OC1=O [IC-61, 7-((1S)-1-(2R,4s)-(2-(aminomethyl)-6-oxo-5-oxa-7-azaspiro[3.4]oct-7-yl)ethyl)-3-(3-fluoro-4-((methylsulfonyl)methyl)phenyl)-1H-indole-2-carboxylic acid] | 1 to 10 nM | C (C = 5-10 mg/kg) | A (A = MIC values ≤ 1) | 0.005 to 0.05 | > 6.67 h | 0.1 to 1 nM | > 6.67 h | A (A = MIC values ≤ 1) | B (B MIC values 2 ÷ 8) | < 0.1 nM | 0.05 to 0.25 | < 0.1 nM
4 | C[C@@H](c1cccc2c(-c3cncc(O)c3)c(C(=O)O)[nH]c12)N1C[C@]2(C[C@@H](CN)C2)OC1=O [IC-23, 7-((S)-1-((2S,4r)-2-(aminomethyl)-6-oxo-5-oxa-7-azaspiro[3.4]octan-7-yl)ethyl)-3-(5-hydroxypyridin-3-yl)-1H-indole-2-carboxylic acid] | > 10 nM | C (C = 5-10 mg/kg) | A (A = MIC values ≤ 1) | 0.005 to 0.05 |  | 1 to 10 nM |  | A (A = MIC values ≤ 1) | B (B MIC values 2 ÷ 8) | 0.1 to 1 nM | 0.05 to 0.25 | 1 to 10 nM
5 | CC(C)c1cccc2c(-c3cc(Cl)cc(Cl)c3)c(C(=O)O)[nH]c12 [Prior Art Compound 76, reference compound] | > 10 nM | A (A = >100 mg/kg) |  | < 0.005 | < 2.5 h | > 10 nM | < 2.5 h |  |  | 0.1 to 1 nM | < 0.005 | 1 to 10 nM
6 | C[C@@H](c1cccc2c(-c3ccnc(O)c3)c(C(=O)O)[nH]c12)N1C[C@]2(C[C@@H](CN)C2)OC1=O [IC-18, 7-((S)-1-((2S,4r)-2-(aminomethyl)-6-oxo-5-oxa-7-azaspiro[3.4]octan-7-yl)ethyl)-3-(2-hydroxypyridin-4-yl)-1H-indole-2-carboxylic acid] | > 10 nM | C (C = 5-10 mg/kg) | A (A = MIC values ≤ 1) | 0.005 to 0.05 | > 6.67 h | 1 to 10 nM | < 2.5 h | A (A = MIC values ≤ 1) | B (B MIC values 2 ÷ 8) | 0.1 to 1 nM | > 0.25 | 0.1 to 1 nM
7 | C[C@@H](c1cccc2c(-c3ccc(NS(C)(=O)=O)c(F)c3)c(C(=O)O)[nH]c12)N1C[C@]2(C[C@@H](CN)C2)OC1=O [IC-14, 7-((S)-1-((2S,4r)-2-(Aminomethyl)-6-oxo-5-oxa-7-azaspiro[3.4]octan-7-yl)ethyl)-3-(3-fluoro-4-(methylsulfonamido)phenyl)-1H-indole-2-carboxylic acid] | > 10 nM | C (C = 5-10 mg/kg) | A (A = MIC values ≤ 1) | 0.05 to 0.25 | 2.5 to 6.67 h | 0.1 to 1 nM | > 6.67 h | A (A = MIC values ≤ 1) | B (B MIC values 2 ÷ 8) | 0.1 to 1 nM | 0.05 to 0.25 | < 0.1 nM
8 | C[C@@H](c1cccc2c(-c3cc[nH]c(=O)c3)c(C(=O)O)[nH]c12)n1cc(CN2CC(N)C2)oc1=O [IC-54, 7-[(1S)-1-{5-[(3-Aminoazetidin-1-yl)methyl]-2-oxo-2,3-dihydro-1,3-oxazol-3-yl}ethyl]-3-(2-oxo-1,2-dihydropyridin-4-yl)-1H-indole-2-carboxylic acid] | > 10 nM | C (C = 5-10 mg/kg) | A (A = MIC values ≤ 1) | > 0.25 |  | > 10 nM |  | A (A = MIC values ≤ 1) | B (B MIC values 2 ÷ 8) | 1 to 10 nM | > 0.25 | 0.1 to 1 nM
9 | CC(NC(=O)c1ccc(CN)cc1)c1cccc2c(-c3ccc(CN4CCOCC4)nc3)c(C(=O)O)[nH]c12 (stereo not shown) [IC-11, 7-(1-((4-(Aminomethyl)benzoyl)amino)ethyl)-3-(6-(morpholin-4-ylmethyl)pyridin-3-yl)-1H-indole-2-carboxylic acid] | > 10 nM | B (B = 30-10 mg/kg) |  | 0.005 to 0.05 | > 6.67 h | > 10 nM | > 6.67 h |  |  | 1 to 10 nM | > 0.25 | < 0.1 nM
